Measured values: US12636275B2, “Pharmaceutical use of ketoamide-based compound” (Shanghai Institute of Materia Medica, Chinese Academy of …, priority 2020, dated 2026)

tested on: 2019 novel coronavirus (2019-nCov); assay: Inhibitory activity on replication of 2019 novel coronavirus (cytopathic effect, MTS, RD cells); type: cell-based; conditions: CQ as positive control, different concentration gradients

| SMILES | virus inhibitory activity (in words) |
| --- | --- |
| O=C(NCc1ccccc1)C(=O)[C@H](C[C@@H]1CCNC1=O)NC(=O)[C@H](CC1CCCCC1)NC(=O)c1ccc2ccccc2n1 [Example A42, N—((S)-1-(((S)-4-(benzylamino)-3,4-dione-1-((S)-2-oxopyrrolidin-3-yl)but-2-yl)amino)-3-cyclohexyl-1-oxopropan-2-yl)-quinoline-2-carboxamide] | excellent virus inhibitory activity |

same assay, conditions: CQ as positive control, different concentration gradients; listed as 4001

| SMILES | virus inhibitory activity (in words) |
| --- | --- |
| O=C(NCc1ccccc1)C(=O)[C@H](C[C@@H]1CCNC1=O)NC(=O)[C@H](CC1CCCCC1)NC(=O)c1ccc2ccccc2n1 [Example A42, N—((S)-1-(((S)-4-(benzylamino)-3,4-dione-1-((S)-2-oxopyrrolidin-3-yl)but-2-yl)amino)-3-cyclohexyl-1-oxopropan-2-yl)-quinoline-2-carboxamide] | better than that of positive control CQ |

same assay, conditions: Severe acute respiratory syndrome coronavirus 2, RD, read-out: EC50, inhibition of 2019-nCoV virus replication

| SMILES | EC50 [µM] |
| --- | --- |
| O=C(NCc1ccccc1)C(=O)[C@H](C[C@@H]1CCNC1=O)NC(=O)[C@H](CC1CCCCC1)NC(=O)c1ccc2ccccc2n1 [Example A42, N—((S)-1-(((S)-4-(benzylamino)-3,4-dione-1-((S)-2-oxopyrrolidin-3-yl)but-2-yl)amino)-3-cyclohexyl-1-oxopropan-2-yl)-quinoline-2-carboxamide] | 0.581 |

target: T1, 2019-nCoV 3CL protease (Severe acute respiratory syndrome coronavirus 2, UniProt P0DTD1); assay: Inhibitory activity against 3CL protease of 2019 novel coronavirus (FRET); type: biochemical; conditions: FRET, 37° C., substrate 20 μM
T1 construct: against 3CL protease of 2019 novel coronavirus (2019-nCoV 3CL^pro)
Procedure: To determine the inhibitory activity of the compound against 3CL protease of 2019 novel coronavirus (2019-nCoV 3CL^pro): the enzyme level inhibitory activity of inhibitors against 3CL protease was determined by fluorescence resonance energy transfer (FRET) technology. In a 96-well plate, 27.5 μL of buffer (20 mM Tris, 100 mM NaCl, 1 mM EDTA, pH 7.4) was added to each well, 2.5 μL compounds ([…], respectively) and 5 μL […] (final concentration was 3 μM) were added at the same time. Incubated at 37° C. for 15 min. Then 15 μL fluorescent substrate diluted with buffer (final concentration was 20 μM) was added. The fluorescence parameters were determined by Ge n5 fluorescence spectrophotometer. The excitation wavelength and emission wavelength were 340 nm and 490 nm respectively, kept at 37° C., and the data were read after 10 min. A negative control was used, in which no compound was added to the control, and the rest was the same.

| SMILES | IC50 [µM] |
| --- | --- |
| CC(C)(C)NC(=O)C(=O)[C@H](C[C@@H]1CCCNC1=O)NC(=O)[C@H](CC1CCCCC1)NC(=O)c1cc2ccccc2[nH]1 [Example A6, N—((S)-1-(((S)-4-(tert-butylamino)-3,4-dione-1-((S)-2-oxopiperidin-3-yl)but-2-yl)amino)-3-cyclohexyl-1-oxopropan-2-yl)-1H-indole-2-carboxamide] | 25.3 |
| O=C(NCc1ccccc1)C(=O)[C@H](C[C@@H]1CCNC1=O)NC(=O)[C@H](CC1CCCCC1)NC(=O)c1cc2ccccc2s1 [Example A17, N—((S)-1-(((S)-4-(benzylamino)-3,4-dione-1-((S)-2-oxopyrrolidin-3-yl)but-2-yl)amino)-3-cyclohexyl-1-oxopropan-2-yl)-benzothiophene-2-carboxamide] | 12.5 |
| Cn1c(C(=O)N[C@@H](CC2CCCCC2)C(=O)N[C@@H](C[C@@H]2CCCNC2=O)C(=O)C(=O)NC(C)(C)C)cc2ccccc21 [Example A28, N—((S)-1-(((S)-4-(tert-butylamino)-3,4-dione-1-((S)-2-oxopiperidin-3-yl)but-2-yl)amino)-3-cyclohexyl-1-oxopropan-2-yl)-1-methyl-1H-indole-2-carboxamide] | 15.2 |
| Cn1c(C(=O)N[C@@H](CC2CCCCC2)C(=O)N[C@@H](C[C@@H]2CCCNC2=O)C(=O)C(=O)NC2CCCCC2)cc2ccccc21 [Example A29, N—((S)-3-cyclohexyl-1-(((S)-4-(cyclohexylamino)-3,4-dione-1-((S)-2-oxopiperidin-3-yl)but-2-yl)amino)-3-cyclohexyl-1-oxopropan-2-yl)-1-methyl-1H-indole-2-carboxamide] | 9.8 |
| O=C(NCc1ccccc1)C(=O)[C@H](C[C@@H]1CCNC1=O)NC(=O)[C@H](CC1CCCCC1)NC(=O)c1ccc2ccccc2n1 [Example A42, N—((S)-1-(((S)-4-(benzylamino)-3,4-dione-1-((S)-2-oxopyrrolidin-3-yl)but-2-yl)amino)-3-cyclohexyl-1-oxopropan-2-yl)-quinoline-2-carboxamide] | 3 |
| O=C(NC1CCCCC1)C(=O)[C@H](C[C@@H]1CCNC1=O)NC(=O)[C@H](Cc1ccccc1)NC(=O)c1cc2ccccc2o1 [Example A56] | 24.1 |
| O=C(NC1CCCCC1)C(=O)[C@H](C[C@@H]1CCCNC1=O)NC(=O)[C@H](Cc1ccccc1)NC(=O)c1cc2ccccc2o1 [Example A59] | 23.5 |
| CC(C)C[C@H](NC(=O)c1cc2ccccc2[nH]1)C(=O)N[C@@H](C[C@@H]1CCNC1=O)C(=O)C(=O)NCc1ccccc1 [Example A90, N—((S)-1-(((S)-4-(benzylamino)-3,4-dione-1-((S)-2-oxopyrrolidin-3-yl)but-2-yl)amino)-4-methyl-1-oxopentan-2-yl)-1H-indole-2-carboxamide] | 25.2 |
| CC(C)C[C@H](NC(=O)c1cc2c(Cl)cc(Cl)cc2[nH]1)C(=O)N[C@@H](C[C@@H]1CCNC1=O)C(=O)C(=O)NC(C)(C)C [Example A115] | 6.5 |
| O=C(NCc1ccccc1)C(=O)[C@H](C[C@@H]1CCNC1=O)NC(=O)[C@H](Cc1ccccc1)NC(=O)c1cn2cc(Br)ccc2n1 [Example A156] | 4.7 |
| COc1cc(OC)c2cc(C(=O)N[C@@H](Cc3ccccc3)C(=O)N[C@@H](C[C@@H]3CCNC3=O)C(=O)C(=O)NC(C)(C)C)[nH]c2c1 [Example A221, N—((S)-1-(((S)-4-(tert-butylamino)-3,4-dione-1-((S)-2-oxopyrrolidin-3-yl)but-2-yl)amino)-1-oxo-3-phenylpropan-2-yl)-4,6-dimethoxy-1H-indole-2-carboxamide] | 5.8 |
| CC(C)NC(=O)CC[C@H](NC(=O)[C@H](Cc1ccccc1)NC(=O)c1cc2ccccc2[nH]1)C(=O)C(=O)NCC1CCCCC1 [Example A234] | 10.3 |
| CC(C)NC(=O)CC[C@H](NC(=O)[C@H](CC1CCCCC1)NC(=O)c1cnc2ccccc2n1)C(=O)C(=O)NCc1ccccc1 [Example A236, N—((S)-1-(((S)-4-(benzyl)-3,4-dione-1-(isopropylamino)-2-yl)amino)-3-(cyclohexyl)-1-oxopropan-2-yl)-quinoxaline-2-carboxamide] | 4.5 |
| CC(C)NC(=O)CC[C@H](NC(=O)[C@H](Cc1ccccc1)NC(=O)c1cnc2ccccc2n1)C(=O)C(=O)NCc1ccccc1 [Example A238] | 4.8 |
| O=C(CC[C@H](NC(=O)[C@H](Cc1ccccc1)NC(=O)c1cnc2ccccc2n1)C(=O)C(=O)NCc1ccccc1)NC1CCCCC1 [Example A239, N—((S)-1-(((S)-4-(benzyl)-3,4-dione-1-(cyclohexylamino)-2-yl)amino)-3-(phenyl)-1-oxopropan-2-yl)-quinoxaline-2-carboxamide] | 3.8 |
| O=C(NC1CCCCC1)C(=O)[C@H](C[C@@H]1CCCNC1=O)NC(=O)[C@H](CC1CCCCC1)NC(=O)c1cc2cccc(Br)c2o1 [Example A257, N—((S)-1-(((S)-4-(cyclohexylamino)-3,4-dione-1-((S)-2-oxopiperidin-3-yl)but-2-yl)amino)-3-cyclohexyl-1-oxopropan-2-yl)-6-bromo-benzofuran-2-carboxamide] | 5.2 |
| CCOc1ccc2oc(C(=O)N[C@@H](CC3CCCCC3)C(=O)N[C@@H](C[C@@H]3CCCNC3=O)C(=O)C(=O)NCc3ccccc3)cc2c1 [Example A259, N—((S)-1-(((S)-4-(benzylamino)-3,4-dione-1-((S)-2-oxopiperidin-3-yl)but-2-yl)amino)-3-cyclohexyl-1-oxopropan-2-yl)-5-ethoxyl-benzofuran-2-carboxamide] | 9.5 |
| O=C(NCc1ccccc1)C(=O)[C@H](C[C@@H]1CCCNC1=O)NC(=O)[C@H](CC1CCCCC1)NC(=O)c1cccnn1 [Example A268, N—((S)-1-(((S)-4-(benzylamino)-3,4-dione-1-((S)-2-oxopiperidin-3-yl)but-2-yl)amino)-3-cyclohexyl-1-oxopropan-2-yl)-pyridazine-2-carboxamide] | 5.6 |
| O=C(NCc1ccccc1)C(=O)[C@H](C[C@@H]1CCCNC1=O)NC(=O)[C@H](CC1CCCCC1)NC(=O)c1cc2c(F)c(F)ccc2[nH]1 [Example A269, N—((S)-1-(((S)-4-(benzylamino)-3,4-dione-1-((S)-2-oxopiperidin-3-yl)but-2-yl)amino)-3-cyclohexyl-1-oxopropan-2-yl)-4,5-indole-2-carboxamide] | 8.8 |
| O=C(NCc1cc(F)cc(F)c1)C(=O)[C@H](C[C@@H]1CCCNC1=O)NC(=O)[C@H](CC1CCCCC1)NC(=O)c1cc2ccccc2o1 [Example A270, N—((S)-1-(((S)-4-(3,5-difluorobenzylamino)-3,4-dione-1-((S)-2-oxopiperidin-3-yl)but-2-yl)amino)-3-cyclohexyl-1-oxopropan-2-yl)-benzofuran-2-carboxamide] | 7.6 |
| Cc1ccc(CN(C)C(=O)C(=O)[C@H](C[C@@H]2CCCNC2=O)NC(=O)[C@H](CC2CCCCC2)NC(=O)c2cc3ccccc3o2)cc1 [Example A272, N—((S)-1-(((S)-4-(4-methylbenzylmethylamino)-3,4-dione-1-((S)-2-oxopiperidin-3-yl)but-2-yl)amino)-3-cyclohexyl-1-oxopropan-2-yl)-benzofuran-2-carboxamide] | 4.8 |
| O=C(NCc1ccc(-c2ccccc2)cc1)C(=O)[C@H](C[C@@H]1CCCNC1=O)NC(=O)[C@H](CC1CCCCC1)NC(=O)c1cc2ccccc2o1 [Example A275] | 5.8 |
| CC(C)(C)NC(=O)C(=O)[C@H](C[C@@H]1CCNC1=O)NC(=O)[C@H](Cc1ccccc1)NC(=O)c1cc2ccccc2o1 [Example A291, N—((S)-1-(((S)-4-(tert-butylamino)-3,4-dione-1-((S)-2-oxopyrrolidin-3-yl)but-2-yl)amino)-3-phenyl-1-oxopropan-2-yl)-benzofuran-2-carboxamide] | 15.2 |
| C[C@@H](NC(=O)C(=O)[C@H](C[C@@H]1CCNC1=O)NC(=O)[C@H](CC1CCCCC1)NC(=O)c1ccc2ccccc2n1)c1ccccc1 [Example A293] | 26.4 |
| O=C(NCc1ccccc1)C(=O)[C@H](C[C@@H]1CCNC1=O)NC(=O)[C@H](Cc1cccc(F)c1)NC(=O)c1ccc2ccccc2n1 [Example A305, N—((S)-1-(((S)-4-(benzylamino)-3,4-dione-1-((S)-2-oxopyrrolidin-3-yl)but-2-yl)amino)-3-(3-fluorophenyl)-1-oxopropan-2-yl)-quinoline-2-carboxamide] | 8.5 |
| O=C(NCc1ccccc1)C(=O)[C@H](C[C@@H]1CCNC1=O)NC(=O)[C@H](Cc1ccc(F)cc1)NC(=O)c1ccc2ccccc2n1 [Example A306, N—((S)-1-(((S)-4-(benzylamino)-3,4-dione-1-((S)-2-oxopyrrolidin-3-yl)but-2-yl)amino)-3-(4-fluorophenyl)-1-oxopropan-2-yl)-quinoline-2-carboxamide] | 6.7 |
